Test [1] addresses T1, TYK2-JH2 (aa 575-869, in-house) protein (Homo sapiens, UniProt P29597).
T1 construct: TYK2-JH2 (aa 575-869, in-house) protein; made in house
Description: TYK2-JH2 biochemical assay (HTRF, blocking of TYK2-JH2 protein with its probe). Format: binding. Conditions: for IC50: HTRF, 0.2 nM recombinant TYK2-JH2, Probe 1; for Biochemical assay Selectivity fold (TYK2/JAK1): TYK2-JH2 vs JAK1-JH2 biochemical IC50. In outline: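 Recombinant TYK2-JH2 (0.2 nM) pre-incubated with compounds (10 doses, 5-fold dilutions) 0.5 h at RT in HEPES pH 7.5 buffer with MgCl2, BSA, DTT, Brij-35; biotinylated probe (10 nM working solution, KD=10 nM) plus anti-6His Tb cryptate/streptavidin-XL665 added, 1 h RT. HTRF ratio read; IC50 from four-parameter logistic fit.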
(In general: In TR-FRET formats the signal depends on donor and acceptor labels being close together.)

The target of test [2] is T2, JAK1-JH2 protein (aa 561-860, in-house) (Homo sapiens, UniProt P23458).
T2 construct: JAK1-JH2 protein (aa 561-860, in-house); made in house
Put plainly: JAK1-JH2 biochemical assay (HTRF, blocking of JAK1-JH2 protein with its probe). Conditions: 1.17 nM recombinant JAK1-JH2, Probe 2. The test is classed as binding. The method in brief: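 HTRF probe-displacement assay using recombinant human JAK1 pseudokinase domain (aa 561-860, 1.17 nM in pre-incubation step), pre-incubated 0.5 h at room temperature with 10-dose 5-fold compound series. Buffer: 20 mM HEPES pH 7.5, 10 mM MgCl2, 0.005% BSA, 2 mM DTT, 0.015% Brij-35. IC50 by four-parameter logistic fit of 615/665 nm ratio.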

The test system of test [3] is JAK2, TYK2/p-STAT4 (Tyr693) activated by IL-12 in NK-92 cell line. Description: IL-12-JAK2, TYK2/p-STAT4 (Tyr693) inhibition cellular assay. The test is classed as cell-based. The following applies: for IC50: NK92, 0.5 h, NK-92 cells, IL-12 40 ng/ml, 30 min, read-out: Cellular assay pSTAT4/IL-12 IC50; for Cellular assay Selectivity fold (TYK2/JAK1): pSTAT4/IL-12 vs pSTAT3/IL-6 cellular IC50. The method in brief: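 NK-92 cells were starved overnight without IL-2 and seeded at 5×10^4 per well in 1640 medium with 0.1% BSA. Lysate p-STAT4 (Tyr693) was measured by AlphaLISA SureFire, and IC50 was fitted with a 4-parameter logistic model.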

For test [4], the system named is JAK1/p-STAT3(Tyr705) activated by IL-6 in TF-1 cell line. Put plainly: IL-6-JAK1/p-STAT3(Tyr705) inhibition cellular assay. The test is classed as cell-based. The following applies: Homo sapiens, 0.5 h; TF-1 cells, IL-6 50 ng/ml, 30 min; read-out: Cellular assay pSTAT3/IL-6 IC50.

T1 sequence (P29597 575-869): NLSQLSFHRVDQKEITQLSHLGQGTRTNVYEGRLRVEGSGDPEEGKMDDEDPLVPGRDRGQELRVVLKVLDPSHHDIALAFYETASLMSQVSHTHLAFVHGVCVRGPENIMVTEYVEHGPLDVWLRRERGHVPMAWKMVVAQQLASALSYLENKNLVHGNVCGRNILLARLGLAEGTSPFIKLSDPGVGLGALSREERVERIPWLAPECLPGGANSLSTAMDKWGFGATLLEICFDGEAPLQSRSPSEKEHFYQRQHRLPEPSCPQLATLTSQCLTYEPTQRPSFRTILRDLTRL
T2 sequence (P23458 561-860): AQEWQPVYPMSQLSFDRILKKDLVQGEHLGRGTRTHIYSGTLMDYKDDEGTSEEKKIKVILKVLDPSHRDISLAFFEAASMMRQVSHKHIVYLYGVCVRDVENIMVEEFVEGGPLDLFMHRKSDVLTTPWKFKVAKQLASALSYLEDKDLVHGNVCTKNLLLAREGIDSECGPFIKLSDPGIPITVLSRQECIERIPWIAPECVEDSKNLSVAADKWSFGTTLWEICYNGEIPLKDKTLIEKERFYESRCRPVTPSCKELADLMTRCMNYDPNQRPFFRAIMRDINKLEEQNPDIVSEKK

Consider `CNC(=O)c1nnc(NC(=O)C2CC2)cc1Nc1nc2ccc(N3CC(F)(COC)C3)cn2n1` [Example E17, 6-(cyclopropanecar-boxamido)-4-((6-(3-fluoro-3-(methoxy-methyl)azetidin-1-yl)-[1,2,4]triazolo[1,5-a]pyridin-2-yl)amino)-N-methylpyridazine-3-carboxamide], for which the IC50 was 0.071 nM in test [1], 2.5 nM in test [2], 8.28 nM in test [3] and 2630 nM in test [4]. Further, the “Biochemical assay Selectivity fold (TYK2/JAK1)” value in test [1] is listed as 35 fold. In addition, the “Cellular assay Selectivity fold (TYK2/JAK1)” value in test [3] was 317 fold.
Consider `CNC(=O)c1nnc(NC(=O)C2CC2)cc1Nc1nc2ccc(N3CCC(C4CN(C)C4)CC3)cn2n1` [Example P1, 6-(cyclopropanecarboxamido)-N-methyl-4-((6-(4-(1-methylazetidin-3-yl)piperidin-1-yl)-[1,2,4]triazolo[1,5-a]pyridin-2-yl)amino)pyridazine-3-carboxamide], for which the IC50 was 0.039 nM in test [1], 1.4 nM in test [2], 29 nM in test [3] and above 10000 nM in test [4]. In addition, in test [1], the “Biochemical assay Selectivity fold (TYK2/JAK1)” value is 36 fold. The “Cellular assay Selectivity fold (TYK2/JAK1)” value in test [3] was above 344 fold.
Take `CNC(=O)c1nnc(NC(=O)C2CC2)cc1Nc1nc2cc(OC)c(N3CCC3)cn2n1` [Example B1, 4-((6-(azetidin-1-yl)-7-methoxy-[1,2,4]triazolo[1,5-a]pyridin-2-yl)amino)-6-(cyclopropanecarboxamido)-N-methylpyridazine-3-carboxamide]: the IC50 is 0.936 nM in test [1], 2.03 nM in test [2], 3530 nM in test [3] and above 10000 nM in test [4]. Further, in test [1], the “Biochemical assay Selectivity fold (TYK2/JAK1)” value was determined as 2 fold. Also, in test [3], the “Cellular assay Selectivity fold (TYK2/JAK1)” value is given as above 3 fold.
As to `CNC(=O)c1nnc(NC(=O)C2CC2)cc1Nc1nc2ccc(N3CC(c4ncn(C)n4)C3)cn2n1` [Example E7, 6-(cyclopropanecar-boxamido)-N-methyl-4-((6-(3-(1-methyl-1H-1,2,4-triazol-3-yl)azetidin-1-yl)-[1,2,4]triazolo [1,5-a]pyridin-2-yl)amino)pyridazine-3-carboxamide], the IC50 in test [1] is 0.084 nM; in test [2] it was 0.78 nM; in test [3] it was 47.8 nM; in test [4], above 10000 nM. Further, in test [1], the “Biochemical assay Selectivity fold (TYK2/JAK1)” value turned out to be 9 fold. Moreover, the “Cellular assay Selectivity fold (TYK2/JAK1)” value in test [3] is above 209 fold.
For the compound `CNC(=O)c1nnc(NC(=O)C2CC2)cc1Nc1nc2ccc(N3CC(C)(C)C3)cn2n1` [Example E8, 6-(cyclopropanecar-boxamido)-4-((6-(3,3-dimethylazetidin-1-yl)-[1,2,4]triazolo[1,5-a]pyridin-2-yl)amino)-N-methylpyridazine-3-carboxamide], the IC50 in test [1] is 0.044 nM; in test [2], 3 nM; in test [3] it was 13.8 nM; in test [4] it was above 10000 nM. Moreover, the “Biochemical assay Selectivity fold (TYK2/JAK1)” value in test [1] is given as 68 fold. In addition, the “Cellular assay Selectivity fold (TYK2/JAK1)” value in test [3] was above 724 fold.
With `CNC(=O)c1nnc(NC(=O)C2CC2)cc1Nc1nc2ccc(N3CCC(N4CC(N(C)C)C4)CC3)cn2n1` [Example E21, 6-(cyclopropanecar-boxamido)-4-((6-(4-(3-(dimethylamino)azetidin-1-yl)piperidin-1-yl)-[1,2,4]triazolo [1,5-a]pyridin-2-yl)amino)-N-methylpyridazine-3-carboxamide], the IC50 in test [1] was 0.077 nM; in test [2] it was 2.78 nM; in test [3], 42 nM; in test [4] it was above 10000 nM. Moreover, the “Biochemical assay Selectivity fold (TYK2/JAK1)” value in test [1] turned out to be 36 fold. Moreover, in test [3], the “Cellular assay Selectivity fold (TYK2/JAK1)” value is on record as above 238 fold.
Take `CNC(=O)c1nnc(NC(=O)C2CC2)cc1Nc1nc2ccc(N3CC(N(C)S(C)(=O)=O)C3)cn2n1` [Example F1, 6-(cyclopropanecarboxamido)-N-methyl-4-((6-(3-(N-methylmethylsulfonamido)azetidin-1-yl)-[1,2,4]triazolo[1,5-a]pyridin-2-yl)amino)pyridazine-3-carboxamide]: the IC50 is 0.12 nM in test [1], 2.6 nM in test [2], 95 nM in test [3] and above 10000 nM in test [4]. Besides, the “Biochemical assay Selectivity fold (TYK2/JAK1)” value in test [1] turned out to be 22 fold. The “Cellular assay Selectivity fold (TYK2/JAK1)” value in test [3] is listed as above 105 fold.
On to `CNC(=O)c1nnc(NC(=O)C2CC2)cc1Nc1nc2c(C)cc(N3CCC3)cn2n1` [Example N3], for which the IC50 in test [1] was 0.089 nM; in test [2] it was 1.47 nM; in test [3], 21 nM; in test [4], 4100 nM. The “Biochemical assay Selectivity fold (TYK2/JAK1)” value in test [1] was 17 fold. In addition, the “Cellular assay Selectivity fold (TYK2/JAK1)” value in test [3] is 192 fold.
For the compound `CNC(=O)c1nnc(NC(=O)C2CC2)cc1Nc1nc2ccc(N3CCC3)cn2n1` [Example E1, 4-((6-(azetidin-1-yl)-[1,2,4]triazolo[1,5-a]pyridin-2-yl)amino)-6-(cyclopropanecarboxamido)-N-methylpyridazine-3-carboxamide], the IC50 in test [1] worked out at 0.047 nM; in test [2], 1.6 nM; in test [3] it was 13.3 nM; in test [4], 6330 nM. Moreover, the “Biochemical assay Selectivity fold (TYK2/JAK1)” value in test [1] amounted to 34 fold. Besides, in test [3], the “Cellular assay Selectivity fold (TYK2/JAK1)” value came to 475 fold.
Regarding `CNC(=O)c1nnc(NC(=O)C2CC2)cc1Nc1nc2ccc(C3CN(C(=O)c4cccnc4)C3)cn2n1` [Example L3, 6-(cyclopropanecarboxamido)-N-methyl-4-((6-(1-nicotinoylazetidin-3-yl)-[1,2,4]triazolo[1,5-a]pyridin-2-yl)amino)pyridazine-3-carboxamide], the IC50 in test [1] was 0.072 nM; in test [2], 1.5 nM; in test [3], 127 nM; in test [4], above 10000 nM. In test [1], the “Biochemical assay Selectivity fold (TYK2/JAK1)” value is recorded as 21 fold. Further, the “Cellular assay Selectivity fold (TYK2/JAK1)” value in test [3] was above 79 fold.
Regarding `CNC(=O)c1nnc(NC(=O)C2CC2)cc1Nc1nc2c(F)cc(N3CCC3)cn2n1` [Example N2, 4-((6-(azetidin-1-yl)-8-fluoro-[1,2,4]triazolo [1,5-a]pyridin-2-yl)amino)-6-(cyclopropanecarboxamido)-N-methylpyridazine-3-carboxamide], the IC50 in test [1] came to 0.063 nM; in test [2] it was 1.28 nM; in test [3] it was 14 nM; in test [4], 9640 nM. Moreover, the “Biochemical assay Selectivity fold (TYK2/JAK1)” value in test [1] is recorded as 20 fold. Besides, the “Cellular assay Selectivity fold (TYK2/JAK1)” value in test [3] is reported as 688 fold.
Regarding `CNC(=O)c1nnc(NC(=O)C2CC2)cc1Nc1nc2ccc(C3CN(C)C3)cn2n1` [Example M1, 6-(cyclopropanecarboxamido)-N-methyl-4-((6-(1-methylazetidin-3-yl)-[1,2,4]triazolo[1,5-a]pyridin-2-yl)amino)pyridazine-3-carboxamide], the IC50 in test [1] was 0.26 nM; in test [2] it was 2.6 nM; in test [3] it was 63 nM; in test [4], above 10000 nM. For the same compound, the “Biochemical assay Selectivity fold (TYK2/JAK1)” value in test [1] stood at 10 fold. The “Cellular assay Selectivity fold (TYK2/JAK1)” value in test [3] is above 158 fold.
Turning to `CNC(=O)c1nnc(NC(=O)C2CC2)cc1Nc1nc2ccc(N3CC(CC(F)F)C3)cn2n1` [Example E4, 6-(cyclopropanecar-boxamido)-4-((6-(3-(2,2-difluoroethyl)azetidin-1-yl)-[1,2,4]triazolo[1,5-a]pyridin-2-yl)amino)-N-methylpyridazine-3-carboxamide], the IC50 was found to be 0.044 nM in test [1], 1.5 nM in test [2], 10 nM in test [3] and 5400 nM in test [4]. Further, the “Biochemical assay Selectivity fold (TYK2/JAK1)” value in test [1] came out at 34 fold. Besides, the “Cellular assay Selectivity fold (TYK2/JAK1)” value in test [3] came out at 540 fold.
`CNC(=O)c1nnc(NC(=O)C2CC2)cc1Nc1nc2ccc(N3CC(C(=O)N4CCSC4)C3)cn2n1` [Example Q1, 6-(cyclopropanecarboxamido)-N-methyl-4-((6-(3-(thiazolidine-3-carbonyl)azetidin-1-yl)-[1,2,4]triazolo[1,5-a]pyridin-2-yl)amino)pyridazine-3-carboxamide]: the IC50 in test [1] is 0.16 nM; in test [2], 2.18 nM; in test [3], 157 nM; in test [4] it was above 10000 nM. Also, the “Biochemical assay Selectivity fold (TYK2/JAK1)” value in test [1] amounted to 14 fold. Moreover, in test [3], the “Cellular assay Selectivity fold (TYK2/JAK1)” value is reported as above 64 fold.

The values above are taken from US12606556B2, “TYK-2 inhibitor” (BEIGENE, LTD., priority 2020, dated 2026).
